Measured values from US20190022198A1, “Individualized Immunomodulation Therapy for Neurodegenerative Disorders, CNS Injury and Age-Related Dementia” (Yeda Research and Development Co. Ltd., priority 2012, published 2019).

What was measured:
CP epithelial cells = assay: Primary culture of choroid plexus cells treated with cytokines, mRNA by real-time qPCR; type: cell-based, mouse; settings: TNF-α 100 ng/ml
Description: Mice were perfused from the left ventricle of the heart with PBS, and their CPs were removed under a dissecting microscope (Stemi DV4; Zeiss) in PBS into tubes containing 0.25% trypsin, and kept on ice. The tubes were shaken for 20 minutes at 37° C. and the tissue was dissociated by pipetting. The cell suspension was washed in culture medium for epithelial cells (DMEM/HAM's F12 (Invitrogen Corp)) supplemented with 10% FCS (Sigma-Aldrich), 1 mM 1-glutamine, 1 mM sodium pyruvate, 100 U/ml penicillin, […] streptomycin, 5 μg/ml Insulin, 20 μM Ara-C, 5 ng/ml sodium selenite, 10 ng/ml EGF, and cultured (˜250,000 cells/well) at 37° C., 5% CO2 in 24-well plates (Corning Incorporated) coated with poly-L-lysine (PLL; Sigma-Aldrich). After 24 hours, the medium was changed, and the cells were either left untreated, or treated with the indicated cytokines (all purchased from PeproTech): IFN-γ, IL-4, IL-10, IL-17A, GM-CSF, IL-6, IL-1β or TNF-α or their combinations for 24 h. Cell viability was quantified by Trypan blue staining after detachment of the cells with 0.25% trypsin for 10 minutes at 37° C. Neutralizing antibodies to TNF-R1 or TNF-R2 ([…], BioLegend) were added 1 h prior to the addition of TNF-α (100 ng/ml). RNA was isolated using the ZR RNA microprep kit (Zymo Research) according to the manufacturer's protocol.
Total RNA of the hippocampus was extracted with TRI reagent (MRC, Cincinnati, Ohio) and was purified from the lysates and spinal cord using the RNeasy kit (Qiagen, Hilden, Germany). Total RNA of the choroid plexus was extracted using the RNA MicroPrep kit (Zymo Research). mRNA (1 μg) was converted to cDNA using High Capacity cDNA Reverse Transcription Kit (Applied Biosystems). The expression of specific mRNAs was assayed using fluorescence based real-time quantitative PCR (qPCR). qPCR reactions were performed using Power SYBR Green PCR Master Mix (Applied Biosystems). Quantification reactions were performed in triplicates for each sample using the standard curve method. Glyceraldehyde 3-phosphate dehydrogenase (GAPDH), Peptidylprolyl isomerase A (PPIA), and hypoxanthine guanine phosphoribosyltransferase (HPRT) were chosen as reference genes according to their stability in the target tissue. The amplification cycles were 95° C. for 5 sec, 60° C. for 20 sec, and 72° C. for 15 sec. At the end of the assay, a melting curve was constructed to evaluate the specificity of the reaction. For some genes, the cDNA was pre-amplified in 14 PCR cycles with non-random PCR primers, thus increasing the sensitivity of the subsequent real-time PCR analysis (PreAmp Master Mix Kit, Applied Biosystems). For these genes, expression was determined using TaqMan Real-Time PCR, according to manufacturer's instructions (Applied Biosystems). All quantitative real-time PCR reactions were performed and analyzed using the 7500 Real-Time PCR System (Applied Biosystems). The following TaqMan probes were used: Mm02342430_g1 (ppia), Mm00446968_m1 (hprt), Mm00445260_m1 (il-4), Mm01168134_m1 (ifn-γ), Mm00441238_m1 (ccl11), Mm00475988_m1 (arg-1). In addition, the following primers were used: […]

cultured CP cells = assay: Immunocytochemistry of cultured CP cells treated with cytokines; type: cell-based, mouse; settings: cultured cells following TNF-α treatment (data not shown)
Description: For whole mount staining of the choroid plexus, isolated tissues were fixed with 2.5% paraformaldehyde (PFA) for several hours, and subsequently transferred to PBS containing 0.05% sodium azide. Prior to staining, the dissected tissues were washed and blocked (20% horse serum, 0.3% Triton X-100, and PBS) for 1 h at room temperature with shaking. Whole mount staining with primary (in PBS containing 2% horse serum and 0.3% Triton X-100) and secondary antibodies (in PBS), was performed for 1h at room temperature, with shaking. Each step was followed by three washes in PBS. The tissues were mounted onto slides, using Immu-mount (9990402, from Thermo), and sealed with cover-slips. For staining of sectioned brains, two different tissue preparation protocols (paraffin embedded and microtomed frozen sections) were applied, as previously described (Ziv Y et al (2006b)). For immunocytochemistry, CP cells were isolated as described above and were grown on PLL coated cover slips for 7 days, replacing the medium every 3 days. Cytokines were added for the last 3 days of culture. Following 7 days of culture, the wells were washed with PBS and the cells were fixed either with 2.5% paraformaldehyde for 30 min or methanol-acetone (1:1) for 10 min at −20° C., following by 2 washing steps with PBS. For CCL11 staining, cells were treated with Brefeldin-A 2 hours prior to fixation in order to arrest protein secretion. The cover slips of the cultured CP cells were incubated with the indicated antibodies and mounted with Glycerol Vinyl Alcohol (GVA) mounting solution (Invitrogen). The following primary antibodies were used: rat anti-CD3 (Abcam); rat anti-ICAM-1 (1:100; Abcam), chicken anti-vimentin (1:500, Millipore), rabbit anti-Iba1 (1:300; Wako), goat anti-IL-10 (1:20; R&D), mouse anti-MHC-II (Abcam); mouse anti-Arginase-1 (BD Biosciences); mouse anti-Cytokeratin (Covance); rat anti-CCL11 (R&D Systems); rabbit anti-ZO-1 (Invitrogen); and rabbit anti-Claudin-1 (Invitrogen). Secondary antibodies included: Cy2/Cy3-conjugated donkey anti-rat, mouse or rabbit antibody and Cy3 conjugated donkey anti-mouse, goat, rat, chicken or rabbit (1:200; all from Jackson Immuno Research). The slides were exposed to Hoechst stain (1:2000; Invitrogen) for 1 min. Two negative controls were routinely used in immunostaining procedures, staining with isotype control antibody followed by secondary antibody, and staining with secondary antibody alone. For morphological quantification, average cross-sectional area of epithelial cells was measured following Nissl staining. Cell borders (20-25 cells per picture) were marked and the area was quantified using Image-Pro Plus software in a blinded fashion.

CP cells = assay: Transepithelial migration assay of CD115+ monocytes across CP cells towards CCL2; type: cell-based, mouse; settings: TNF-α in combination with IFN-γ (data not shown)
Description: For transepithelial migration assay, CP cells were isolated as above and plated on 5-μm pore size, 6.5 mm diameter polycarbonate filters in 24-well Transwell chambers (Costar, Corning) and grown for 7 days. The medium of the upper chamber was then replaced with 100 μl of freshly isolated CD115^+ monocytes (1.5×10^6 cells/ml in RPMI 1640 supplemented with 0.5% BSA) and the inserts were transferred to new wells containing RPMI 1640 supplemented with 0.5% BSA and 100 ng/ml CCL2 (PeproTech). The Transwells were then incubated at 37° C., 5% CO2. After 24 h the migrating cells at the lower chamber were removed using cell scraper and CD11b^+ cells were quantified by flow cytometry.
CD115^+ monocytes were isolated as previously reported (Shechter et al., 2009). Briefly, BM cells were harvested from the femur and tibiae of naïve mice, and enriched for mononuclear cells on a Ficoll density gradient. The CD115^+ BM monocyte population was isolated by MACS enrichment using biotinylated anti-CD115 antibodies and streptavidin-coupled magnetic beads (Miltenyi Biotec) according to the manufacturer's protocols. Monocyte purity was checked by flow cytometry based on CD11b reactivity and was 90%.

WT mice = type: in vivo, mouse
mSOD1 mice = assay: MOG immunization of mSOD1 mice: EAE symptoms, CP trafficking molecules, leukocytes in CSF and spinal cord, survival; type: in vivo, mouse
WT, mSOD and 5XFAD mice = assay: Active immunization with MOG and monitoring Tregs and Th1 cells in the blood (Example 19); type: in vivo, mouse
Description: 200 μg of MOG35-55 (GL Biochem Ltd., Shanghai) are emulsified in 200 μl […] Freund's adjuvant (IFA) containing 0.5 mg/ml M. tuberculosis (strain H37Ra; BD Diagnostics), and 200 μl is injected subcutaneously to three groups of mice: WT, mSOD and 5XFAD. Control mice for each group are injected subcutaneously with PBS. At days 7, 14 and 28 post immunization, the mice are anesthetized, blood is collected into heparin containing tubes and […] of each sample are treated with ACK lysing buffer (Life Technologies) to remove erythrocytes. For intracellular staining of IFN-γ (corresponding to Th1 cells) the cells are incubated with PMA (10 ng/ml; Sigma-Aldrich) and ionomycin (250 ng/ml; Sigma-Aldrich) for 6 h, and Brefeldin-A ([…]; Sigma-Aldrich) was added for the last 4 h. Intracellular labeling is done with BD Cytofix/Cytoperm Plus Fixation/Permeabilization kit (cat. no. 555028) according to the manufacturer's protocol. For intracellular staining of Foxp3^+ T regulatory cells (Tregs), the cells are stained according to manufacturer's protocol (Mouse Regulatory T Cell Staining Kit, eBioscience, cat. No. 88-8111-40). […] Flow cytometry analysis is performed on each sample using a BD Biosciences LSRII flow cytometer, and the acquired data is analyzed using FlowJo software (Tree star). The ratio between Tregs and Th1 cells is calculated for each sample.

TNF-α
expression of IFN-γ-receptor (IFN-γR) mRNA (CP epithelial cells; CP epithelial cells, 24 h, IL-1β 100 ng/ml, IL-6 10 ng/ml): elevated the expression of IFN-γ-receptor
MADCAM-1 expression (CP epithelial cells; cultured CP cells, 24 hours, IFN-γ independent): upregulated
IFN-γR immunostaining (cultured CP cells): elevation of IFN-γR
monocyte trafficking through the CP towards CCL2 (CP cells): stimulated the CP to mediate monocyte trafficking towards CCL2

MOG35-55 (MEVGWYRSPFSRVVHLYRNGK; emulsified in adjuvant) [emulsified in incomplete Freund's adjuvant containing 0.5 mg/ml M. tuberculosis]
infiltrating T cells in the CSF (WT mice; 14 days post immunization, relative to naïve or OVA-immunized mice): increase of infiltrating T cells
expression of ICAM-1 by the CP epithelium (WT mice; mouse, in vivo): induced the expression of ICAM-1
total leukocyte numbers, including T cells and CD4+ T cells, in the CSF (mSOD1 mice; 14 days post immunization): increase in total leukocyte numbers
expression of trafficking molecules (ICAM-1, CCL5, CXCL9, CXCL10) in the CP (mSOD1 mice; 14 days post immunization, compared to non-immunized mice): significant increase in the expression of trafficking molecules
CD4+ T cell numbers in the spinal cord parenchyma (mSOD1 mice; 28 days post immunization): remained elevated
local expression of IL-10 in the spinal cord (mSOD1 mice; 28 days post immunization): increased local expression of IL-10
spatial distribution of infiltrating T cells (mSOD1 mice; 28 days post immunization, immunized mSOD1 mice (data not shown)): T cells were found in the gray matter of the spinal cord ventral horn
lifespan compared to PBS injected mice (mSOD1 mice; average survival age and Kaplan-Meier curves, logrank p=0.024): significantly longer lifespan
Foxp3+ Tregs in the CSF (mSOD1 mice; day 28 post immunization): significant elevation of Tregs
Foxp3+ Tregs in the spinal cord parenchyma (mSOD1 mice; day 28 post immunization): significant elevation of Tregs
mice still alive at the age of 154 days (mSOD1 mice; immunized mSOD1 mice): 90%
average survival (mSOD1 mice; immunized mSOD1 mice, n=10 per group): 159.5 ± 2.2 days
increased average survival (mSOD1 mice; immunized versus untreated mSOD1 mice): 15 days
CD4+ T cells in the spinal cord parenchyma (mSOD1 mice; mouse, in vivo): increased infiltration of CD4^+ T cells
expression of TGF-β1 in the spinal cord parenchyma (mSOD1 mice; mouse, in vivo): elevated
ratio of Tregs to Th1 cells in blood (WT, mSOD and 5XFAD mice; 7 or 14 days following immunization, versus control group): lower
ratio of Tregs to Th1 cells in blood (WT, mSOD and 5XFAD mice; 28 days following immunization, relative to 7 or 14 days): increase
